Columns and labels:
[1] = tested on: adult patients diagnosed with DCP, choreiform predominant; assay: Example 3: Phase 3 efficacy study in adults; assay type: in vivo, human
Experimental: (§1) A Phase 3 study to evaluate the efficacy and safety of deutetrabenazine is performed on a population consisting of male and female patients, diagnosed with DCP. Patients may be included in the study only if they meet all of the following criteria: • 1. Patient is older than 18 years of age at baseline. • 2. Patient has had cerebral palsy (CP) symptoms since infancy (≤2 years). • 3. Patient has a diagnosis of DCP according to the Surveillance of Cerebral Palsy in Europe criteria. • 4. Patient has a total score of ≥10 on the MD-CRS part II items at the baseline visit, based on investigator scoring of chorea. • 5. Patient's symptoms are causing functional problems determined by a Clinical Global
Impression of Severity (CGI-S) score of 4 or greater based on investigator scoring. • 6. Choreiform is the predominant movement disorder as assessed by the EAB at screening.
(§2) Patients will receive 6 mg to 48 mg of deutetrabenazine. The titration scheme and maximum dose follows the one in the parent study, Example 1, supra.

[2] = tested on: pediatric patients diagnosed with DCP, predominant motor symptoms dystonic; assay: Example 4: Phase 3 efficacy study, predominantly dystonic DCP; assay type: in vivo, human
Experimental: as §1, with “6 through” for “older than”, “age (inclusive)” for “age”
Impression of Severity (CGI-S) score of 4 or greater based on investigator scoring. • 6. Patient's predominant motor symptoms are dystonic.
as §2

[3] = tested on: patients (age 6 through 18 years) with DCP with predominant choreiform movement disorder
[4] = tested on: children and adolescents with dyskinesia in cerebral palsy
[5] = relative to tetrabenazine; U.S. Pat. No. 8,524,733; cited from earlier work
patients with CP = details: cited from earlier work
[6] = versus placebo, from baseline to week 15

[2H]C([2H])([2H])Oc1cc2c(cc1OC([2H])([2H])[2H])[C@H]1CC(=O)[C@H](CC(C)C)CN1CC2 (racemic) [deutetrabenazine, (RR,SS)-1,3,4,6,7,11b-hexahydro-9,10-di(methoxy-d3)-3-(2-methylpropyl)-2H-benzo[a]quinolizin-2-one]
safety profile [1]: favorable safety profile | abnormal involuntary movements associated with dyskinesia in cerebral palsy ([1]; 6 mg to 48 mg): reduce abnormal involuntary movements | safety profile [2]: favorable safety profile | dystonic abnormal involuntary movements associated with dyskinesia in cerebral palsy ([2]; 6 mg to 48 mg): reduce dystonic abnormal involuntary movements | overall safety and efficacy of treatment ([3]; 6-48 mg/day oral, versus placebo): safe and effective | PGI-I response ([3]; Much Improved or Somewhat Improved in the PGI-I score): demonstrate a PGI-I response | CGI-I response ([3]; Much Improved or Very Much Improved in the CGI-I score): demonstrate a CGI-I response | CaGI-I response ([3]; Much Improved or Very Much Improved in the CaGI-I score): demonstrate a CaGI-I response | PEDI-CAT ([3]; activities of daily living, parent/caregiver completed): improvement | UHDRS-TMC ([3]; in vivo): significant reductions | UHDRS-TMD ([3]; in vivo): significant reductions | UHDRS-TMS ([3]; in vivo): significant reductions | safety by C-SSRS, ESRS, CBCL, ESS and lack of serious adverse events ([3]; in vivo): safe | CP module of the PedsQL ([3]; quality of life, patient/caregiver): significant reductions | CGI-S response ([3]; reduction of >1 point in the CGI-S score): demonstrate a CGI-S response | reduction in the CGI-I score [3, 6]: 0.5-0.7 points | reduction in the CaGI-I score [3, 6]: 0.5-0.7 points | reduction in the MD-CRS part I total score [3, 6]: 2-4 points | reduction in the MD-CRS part II total score [3, 6]: 0.5-4 points | all primary and secondary endpoints ([3]; versus placebo, week 15): significant improvements | safety profile ([4]; in vivo): favorable safety profile | abnormal involuntary movements associated with dyskinesia in cerebral palsy ([4]; long term administration of tolerable amounts): reduce abnormal involuntary movements | half-life of its active metabolites [5]: increased half-life

Nc1ccncc1 [Dalfampridine]
functional improvement (patients with CP): failed to demonstrate functional improvement

Reference: patent US11324732B2, “Methods for the treatment of dyskinesia in cerebral palsy” (AUSPEX PHARMACEUTICALS, INC., priority 2018, dated 2022)
